Source: PMC2584942, “Phase I dose escalation study of telatinib (BAY 57-9352) in patients with advanced solid tumours” (British Journal of Cancer, 2008)
“Also recorded” adds a separate entry of the source.

Experiment: Phase I dose escalation: study drug-related adverse events (NCI CTC v2.0), DLT, MTD
Type: in vivo
Experimental: Administration of telatinib was continued until an unacceptable toxicity, disease progression or death occurred or the consent was withdrawn. At start of the study, only a solution formulation was available. The formulation as tablet was introduced into the study after first pharmacokinetic results became available. Based on pharmacokinetic data, OD, two times daily (BID), and three times daily schedules were evaluated.
Three patients were initially enroled at each dose level. […] If any patient experienced a DLT, three additional patients were enroled at that dose level. If at least two out of six patients experienced a DLT, dose escalation had to be stopped and that dose was to be declared the toxic dose. The next lower dose level was defined as the MTD. […] In the course of the study the protocol was amended so that the onset of CTC grade 3 hypertension was only considered to be a DLT if the hypertension turned out to be refractory to standard antihypertensive treatment.
Adverse events were assessed at the end of each cycle and graded according to the National Cancer Institute Common Toxicity Criteria (NCI CTC), v2.0 ([Trotti et al, 2000]).
History, physical examinations, haematological and biochemical laboratory evaluations were performed at screening, on days 1, 7 and 14 of cycle 1 and on day 1 of subsequent cycles. Baseline objective tumour measurements were performed within 4 weeks prior to study treatment. Lesions at all disease sites were categorised as either measurable or nonmeasurable. Indicator lesions were selected and monitored throughout the study by the same assessor and using the same technique. Tumour response was evaluated according to the RECIST ([Therasse et al, 2000]).

[1] = continuous dosing 600 mg BID (N=7)
[2] = continuous dosing 900 mg BID (N=6)
[3] = continuous dosing 1200 mg BID (N=7)
[4] = continuous dosing 1500 mg BID (N=6)
[5] = noncontinuous dosing 600 mg BID (N=6)
[6] = noncontinuous dosing 900 mg BID (N=6)
[7] = noncontinuous dosing 1500 mg BID (N=6)
[8] = noncontinuous dosing 75–300 mg BID (N=27)

## CNC(=O)c1cc(COc2nnc(Nc3ccc(Cl)cc3)c3ccoc23)ccn1 [telatinib]
300 mg BID, 1500 mg BID noncontinuous and 1200 mg BID continuous dosing
  Patients with hypertension resulting in dose reduction and dose interruption: three
1500 mg BID continuous dosing, first 21 days of treatment
  Patients with dose-limiting toxicities: no patient out of six patients; also recorded: none of the six patients
1500 mg BID noncontinuous dosing, grade 3 hypertension refractory to standard treatment
  Patients with dose-limiting toxicities: one out of six patients
Total, all patients N=71
  Incidence of patients with study drug-related adverse events, worst CTC grade 3: Abdominal pain or cramping: 2 (3) N(%)
  Incidence of patients with study drug-related adverse events, worst CTC grade 3: Any event: 18 (25) N(%)
  Incidence of patients with study drug-related adverse events, worst CTC grade 3: Dehydration: 1 (1) N(%)
  Incidence of patients with study drug-related adverse events, worst CTC grade 3: Diarrhoea, patients with colostomy: 1 (1) N(%)
  Incidence of patients with study drug-related adverse events, worst CTC grade 3: Diarrhoea, patients without colostomy: 4 (6) N(%)
  Incidence of patients with study drug-related adverse events, worst CTC grade 3: Hand–foot skin reaction: 1 (1) N(%)
  Incidence of patients with study drug-related adverse events, worst CTC grade 3: Hypertension: 16 (23) N(%)
  Incidence of patients with study drug-related adverse events, worst CTC grade 3: Rash/desquamation: 1 (1) N(%)
  Incidence of patients with study drug-related adverse events, worst CTC grades 1–2: Alopecia: 2 (3) N(%)
  Incidence of patients with study drug-related adverse events, worst CTC grades 1–2: Anorexia: 5 (7) N(%)
  Incidence of patients with study drug-related adverse events, worst CTC grades 1–2: Any event: 15 (21) N(%)
  Incidence of patients with study drug-related adverse events, worst CTC grades 1–2: Diarrhoea, patients without colostomy: 4 (6) N(%)
  Incidence of patients with study drug-related adverse events, worst CTC grades 1–2: Fatigue: 2 (3) N(%)
  Incidence of patients with study drug-related adverse events, worst CTC grades 1–2: Flatulence: 2 (3) N(%)
  Incidence of patients with study drug-related adverse events, worst CTC grades 1–2: Hypertension: 3 (4) N(%)
  Incidence of patients with study drug-related adverse events, worst CTC grades 1–2: Nausea: 3 (4) N(%)
  Incidence of patients with study drug-related adverse events, worst CTC grades 1–2: Voice changes/stridor/larynx: 5 (7) N(%)
  Incidence of patients with study drug-related adverse events, worst CTC grades 1–2: Vomiting: 2 (3) N(%)
All patients
  Patients dose reduced or discontinued permanently due to drug-related adverse events: nine out of 71
All patients N=71
  Hypertension, study drug-related, CTC grade 3: 23%
  Hypertension, study drug-related, worst CTC grade 1–2: 4%
  Patients with at least one study drug-related adverse event, worst CTC grade 1–2: 21%
  Patients with at least one study drug-related adverse event, worst CTC grade 3: 25%
  Study drug-related adverse events of CTC grades 4 or 5: no study drug-related adverse events of CTC grades 4 or 5
All patients N=71 (with and without colostomy)
  Diarrhoea, study drug-related, CTC grade 3: 7%
All patients, diarrhoea, hypertension, hand–foot skin reaction and dehydration
  Patients with serious study drug-related adverse events: five
[1]
  Incidence of patients with study drug-related adverse events, worst CTC grades 1–2: Any event: 1 (14) N(%)
  Incidence of patients with study drug-related adverse events, worst CTC grades 1–2: Diarrhoea, patients without colostomy: 1 (14) N(%)
[2]
  Incidence of patients with study drug-related adverse events, worst CTC grade 3: Any event: 3 (50) N(%)
  Incidence of patients with study drug-related adverse events, worst CTC grade 3: Dehydration: 1 (17) N(%)
  Incidence of patients with study drug-related adverse events, worst CTC grade 3: Diarrhoea, patients with colostomy: 1 (17) N(%)
  Incidence of patients with study drug-related adverse events, worst CTC grade 3: Diarrhoea, patients without colostomy: 1 (17) N(%)
  Incidence of patients with study drug-related adverse events, worst CTC grade 3: Hand–foot skin reaction: 1 (17) N(%)
  Incidence of patients with study drug-related adverse events, worst CTC grade 3: Hypertension: 2 (33) N(%)
  Incidence of patients with study drug-related adverse events, worst CTC grade 3: Rash/desquamation: 1 (17) N(%)
  Incidence of patients with study drug-related adverse events, worst CTC grades 1–2: Alopecia: 1 (17) N(%)
  Incidence of patients with study drug-related adverse events, worst CTC grades 1–2: Any event: 2 (33) N(%)
  Incidence of patients with study drug-related adverse events, worst CTC grades 1–2: Nausea: 1 (17) N(%)
  Incidence of patients with study drug-related adverse events, worst CTC grades 1–2: Voice changes/stridor/larynx: 1 (17) N(%)
[3]
  Incidence of patients with study drug-related adverse events, worst CTC grade 3: Abdominal pain or cramping: 1 (14) N(%)
  Incidence of patients with study drug-related adverse events, worst CTC grade 3: Any event: 5 (71) N(%)
  Incidence of patients with study drug-related adverse events, worst CTC grade 3: Diarrhoea, patients without colostomy: 2 (29) N(%)
  Incidence of patients with study drug-related adverse events, worst CTC grade 3: Hypertension: 5 (71) N(%)
  Incidence of patients with study drug-related adverse events, worst CTC grades 1–2: Any event: 1 (14) N(%)
  Incidence of patients with study drug-related adverse events, worst CTC grades 1–2: Flatulence: 1 (14) N(%)
[4]
  Incidence of patients with study drug-related adverse events, worst CTC grades 1–2: Any event: 2 (33) N(%)
  Incidence of patients with study drug-related adverse events, worst CTC grades 1–2: Diarrhoea, patients without colostomy: 2 (33) N(%)
  Incidence of patients with study drug-related adverse events, worst CTC grades 1–2: Flatulence: 1 (17) N(%)
  Incidence of patients with study drug-related adverse events, worst CTC grades 1–2: Hypertension: 1 (17) N(%)
  Incidence of patients with study drug-related adverse events, worst CTC grades 1–2: Nausea: 1 (17) N(%)
  Incidence of patients with study drug-related adverse events, worst CTC grades 1–2: Vomiting: 1 (17) N(%)
Continuous dosing, MTD not reached up to highest dose
  Maximum-tolerated dose (MTD): > 1500 mg BID
Cycle 1, day 14 vs baseline
  diastolic blood pressure, change from baseline: increase
Dose levels of 900 mg BID or higher
  Patients with diarrhoea leading to dose reduction or interruption: four
Grade 3 hypertension refractory to standard treatment, at 300 and 1500 mg BID noncontinuous dosing
  Patients with dose-limiting toxicities: two
human, in vivo
  Maximum-tolerated dose (MTD): > 1500 mg BID
[5]
  Incidence of patients with study drug-related adverse events, worst CTC grade 3: Any event: 3 (50) N(%)
  Incidence of patients with study drug-related adverse events, worst CTC grade 3: Hypertension: 3 (50) N(%)
  Incidence of patients with study drug-related adverse events, worst CTC grades 1–2: Anorexia: 1 (17) N(%)
  Incidence of patients with study drug-related adverse events, worst CTC grades 1–2: Any event: 2 (33) N(%)
  Incidence of patients with study drug-related adverse events, worst CTC grades 1–2: Fatigue: 2 (33) N(%)
  Incidence of patients with study drug-related adverse events, worst CTC grades 1–2: Voice changes/stridor/larynx: 2 (33) N(%)
[6]
  Incidence of patients with study drug-related adverse events, worst CTC grade 3: Any event: 2 (33) N(%)
  Incidence of patients with study drug-related adverse events, worst CTC grade 3: Hypertension: 2 (33) N(%)
  Incidence of patients with study drug-related adverse events, worst CTC grades 1–2: Anorexia: 1 (17) N(%)
  Incidence of patients with study drug-related adverse events, worst CTC grades 1–2: Any event: 3 (50) N(%)
  Incidence of patients with study drug-related adverse events, worst CTC grades 1–2: Hypertension: 1 (17) N(%)
  Incidence of patients with study drug-related adverse events, worst CTC grades 1–2: Voice changes/stridor/larynx: 2 (33) N(%)
[7]
  Incidence of patients with study drug-related adverse events, worst CTC grade 3: Abdominal pain or cramping: 1 (17) N(%)
  Incidence of patients with study drug-related adverse events, worst CTC grade 3: Any event: 4 (67) N(%)
  Incidence of patients with study drug-related adverse events, worst CTC grade 3: Diarrhoea, patients without colostomy: 1 (17) N(%)
  Incidence of patients with study drug-related adverse events, worst CTC grade 3: Hypertension: 3 (50) N(%)
  Incidence of patients with study drug-related adverse events, worst CTC grades 1–2: Anorexia: 2 (33) N(%)
  Incidence of patients with study drug-related adverse events, worst CTC grades 1–2: Any event: 2 (33) N(%)
  Incidence of patients with study drug-related adverse events, worst CTC grades 1–2: Diarrhoea, patients without colostomy: 1 (17) N(%)
  Incidence of patients with study drug-related adverse events, worst CTC grades 1–2: Hypertension: 1 (17) N(%)
  Incidence of patients with study drug-related adverse events, worst CTC grades 1–2: Nausea: 1 (17) N(%)
  Incidence of patients with study drug-related adverse events, worst CTC grades 1–2: Vomiting: 1 (17) N(%)
[8]
  Incidence of patients with study drug-related adverse events, worst CTC grade 3: Any event: 1 (4) N(%)
  Incidence of patients with study drug-related adverse events, worst CTC grade 3: Hypertension: 1 (4) N(%)
  Incidence of patients with study drug-related adverse events, worst CTC grades 1–2: Alopecia: 1 (4) N(%)
  Incidence of patients with study drug-related adverse events, worst CTC grades 1–2: Anorexia: 1 (4) N(%)
  Incidence of patients with study drug-related adverse events, worst CTC grades 1–2: Any event: 2 (7) N(%)
